# Source: patent publication EP0840781B1, “METHODS AND DEVICES FOR THE REMOVAL OF PSORALENS FROM BLOOD PRODUCTS” (Cerus Corporation, priority 1995, dated 1996)
# Like-named read-outs stand apart in the source and are kept apart here.
# How the values were obtained:
# [1] = test system: HIV-1; conditions: 1 Minute Irradiation
# [2] = test system: Salmonella typhimurium tester strains TA97a, TA98, TA100, TA102, TA1537 and TA1538
# Source text: The second property that is important in testing a compound for use in methods described herein is mutagenicity. The most widely used mutagen/carcinogen screening assay is the Ames test. This assay is described by D.M. Maron and B.N. Ames in Mutation Research 113:173 ( 1983) and a specific screen is described in detail in Example 17, below. The Ames test utilizes several unique strains of Salmonella typhimurium that are histidine- dependent for growth and that lack the usual DNA repair enzymes. The frequency of normal mutations that render the bacteria independent of histidine (i.e., the frequency of spontaneous revertants) is low. The test allows one to evaluate the impact of a compound on this revenant frequency.
# Because some substances are not mutagenic by themselves, but are converted to a mutagen by metabolic action, the compound to be tested is mixed with the bacteria on agar plates along with the liver extract. The liver extract serves to mimic metabolic action in an animal.
# The mixtures are allowed to incubate. Growth of bacteria (if any) is checked by counting colonies.
# In this example the compounds described herein are tested for their dark mutagenicity using an Ames assay. The procedures used for the Salmonella mutagenicity test as described in detail by Maron and Ames were followed exactly. Maron, D.M. and B.N. Ames, Mutation Research 113: 173 ( 1983). A brief description for each procedure is given here. The tester strains TA97a, TA98, TA 100, TA102, TA1537 and TA1538 were obtained from Dr. Ames. TA97a, TA98, TA1537 and TA1538 are frameshift tester strains. TA100 and TA102 are base-substitution tester strains. Upon receipt each strain was cultured under a variety of conditions to confirm the genotypes specific to the strains.
# The first tests done with the strains were to determine the range of spontaneous reversion for each of the strains. With each mutagenicity experiment the spontaneous reversion of the tester strains to histidine independence was measured and expressed as the number of spontaneous revertants per plate. This served as the background controls.
# For all experiments, the pre-incubation procedure was used. In this procedure one vial of each tester strain was thawed and 20 µL of this culture was added to 6 mL of Oxoid Nutrient Broth #2. This solution was allowed to shake for 10 hours at 37°C. In the pre-incubation procedure, 0.1 mL of this overnight culture was added to each of the required number of sterile test tubes. To half of the tubes 0.5 mL of a 10% S-9 solution containing Aroclor 1254 induced rat liver extract (Molecular Toxicology Inc., Annapolis, MD), and MgCl2, KCl, glucose-6-phosphate, NADP, and sodium phosphate buffer (Sigma, St. Louis, Missouri) were added. To the other half of the tubes 0.5 mL of 0.2M sodium phospate buffer, pH 7.4, was used in place of the S-9 mixture (the - S9 samples). Finally 0.1 mL of the test solution containing either 0, 0.1, 0.5, 1, 5, 10, 50, 100, 250, or 500 µg/mL of the test compound was added. The 0.7 mL mixture was vonexed and then pre-incubated while shaking for 20 minutes at 37°C. After shaking, 2 mL of molten top agar supplemented with histidine and biotin were added to the 0.7 mL mixture and immediately poured onto a minimal glucose agar plate (volume of base agar was 20 mL). The top agar was allowed 30 minutes to solidify and then the plates were inverted and incubated for 44 hours at 37°C. After incubation the number of revertant colonies on each plate were counted.
# Maron and Ames (1983) describe the conflicting views with regard to the statistical treatment of data generated from the test.
# [3] = test system: R17; assay: r-17 bacteriophage assay: R17 treated with compound and UVA, remaining titer by plaque count on Hfr 3000 bacteria; type: cell-based; conditions: for R17 inactivation efficiency compared with AMT: varying concentration (Tables 7 and 8, FIGS. 6-10); for efficiency at inactivating R17 compared with AMT: constant concentration, varying doses of UV light 1.0-3.0 J/cm^2 (FIGS. 11-17)
# Procedure: In the r-17 assay, the bacteriophage was placed in a solution with each compound tested and was then irradiated. The ability of the phage to subsequently infect bacteria and inhibit their growth was measured. The bacteriophage was selected for its relatively accessible nucleic acid such that the culture growth inhibition would accurately reflect nucleic acid damage by the test compounds. The bacteriophage assay for nucleic acid binding to test compounds offers a safe and inexpensive procedure to identify compounds likely to display efficient pathogen inactivation. Previous experiments support that the r-17 assay accurately measures HIV-1 sensitivity to similar compounds. […] Modified Eagles Medium (DMEM) to a final phage concentration of 10^9/mL. An aliquot (0.5 mL) was transferred to a 1.5 mL snap-top polyethylene tube. […] Louis, MO). The tubes were placed in a light device as described in EXAMPLE 1 and irradiated for between 1 and 10 minutes. […] To make the dilutions. a 0.100 mL aliquot of the irradiated solution of phage and test compound was added to the first dilution tube of 0.4 mL of media then 0.020 mL of this solution was added to the second tube of 0.5 mL medium (1:25). […] After the top agar hardened, the plates were incubated at 37 °C overnight. The plaque forming units were then counted the following morning and the titer of the phage remaining after phototreatment was calculated based on the dilution factors. The following controls were run: the "phage only" in which phage was not treated with test compound and not irradiated (listed as "starting titer" in the tables below); the "UV only" in which the phage was irradiated in the absence of test compound; and the "dark" control in which the phage/test compound solution was not irradiated before it was diluted and plated. Compounds described herein were also tested at a constant concentration for varying doses of UV light. […] The compound tested was added at the desired concentration and the samples were vortexed. […] Between each 1.0 J/cm^2 intervals, 100µL was removed from each sample and placed in the first corresponding dilution tube, then five sequential dilutions were performed for each compound tested, at all 3 irradiation doses, as described above in this example. […] The contents of each tube was poured into its own LB plate and the plates were incubated overnight at 37 °C. Plaques were counted by visual inspection the following morning.
# [4] = 32 µM, HIV Starting Titer Approximately 5 Logs (Table 10)
# [5] = 64 µM, HIV Starting Titer Approximately 5 Logs (Table 10)
# [6] = two-fold or greater increase in revertants above background and dose dependent response
# [7] = 16 µM, 1 Minute irradiation = 1.2 J/cm^2, Starting Titer Approx. 7.1 Logs (Table 8)
# [8] = 32 µM, 1 Minute irradiation = 1.2 J/cm^2, Starting Titer Approx. 7.1 Logs (Table 8)
# [9] = 64 µM, 1 Minute irradiation = 1.2 J/cm^2, Starting Titer Approx. 7.1 Logs (Table 8)
# [10] = 16 µM, HIV Starting Titer Approximately 5 Logs (Table 10)
# [11] = 16 µM, HIV Starting Titer Approximately 5.4 Logs (Table 11)
# [12] = 32 µM, HIV Starting Titer Approximately 5.4 Logs (Table 11)
# [13] = 64 µM, HIV Starting Titer Approximately 5.4 Logs (Table 11)
compound,measurement,setting,value
"Cc1oc2c(C)c3oc(=O)cc(C)c3cc2c1COCCCN [Compound 4, 4'-(5-amino-2-oxa)pentyl-4,5',8-trimethylpsoralen]",HIV Log Kill,[1]; [4],2.2
same,HIV Log Kill,[1]; [5],>3.6
same,"revertant colonies, TA100 +S9",[2]; 5 µg/plate,-10
same,"revertant colonies, TA100 -S9",[2]; 5 µg/plate,-41
same,"revertant colonies, TA1538 +S9",[2]; 5 µg/plate,7
same,"revertant colonies, TA1538 -S9",[2]; 5 µg/plate,-2
same,"revertant colonies, TA100 +S9",[2]; 10 µg/plate,-3
same,"revertant colonies, TA100 -S9",[2]; 10 µg/plate,3
same,"revertant colonies, TA1538 +S9",[2]; 10 µg/plate,-2
same,"revertant colonies, TA1538 -S9",[2]; 10 µg/plate,-2
same,"mutagenic response (Ames, summary)",[2]; [6],no mutagenicity
same,R17 Log Kill,[3]; [7],2.3
same,R17 Log Kill,[3]; [8],4.3
same,R17 Log Kill,[3]; [9],>6.1
"Nc1c2ccccc2nc2ccccc12 [9-Amino-acridine, reference compound]","revertant colonies, TA98 -S9",[2]; 10 µg/plate,284
same,"revertant colonies, TA1537 -S9",[2]; 10 µg/plate,284
"Cc1oc2c(C)c3oc(=O)cc(C)c3cc2c1CNCCCN [Compound 5, 4'-(5-amino-2-aza)pentyl4,5',8-trimethylpsoralen]",HIV Log Kill,[1]; [10],0.9
same,HIV Log Kill,[1]; [4],1.3
same,HIV Log Kill,[1]; [5],>2.6
same,R17 Log Kill,[3]; [7],5.6
same,R17 Log Kill,[3]; [8],>6.1
same,R17 Log Kill,[3]; [9],>6.1
same,R17 inactivation efficiency compared with AMT,[3],significantly higher inactivation efficiency than does AMT
"Cc1oc2c(C)c3oc(=O)cc(C)c3cc2c1CNCCCOCCCCOCCN [Compound 9, 4'-(13-amino-2-aza-6,11-dioxa)tridecyl-4,5',8-trimethylpsoralen]",HIV Log Kill,[1]; [11],0.8
same,HIV Log Kill,[1]; [12],1.4
same,HIV Log Kill,[1]; [13],2.7
"Cc1cc(=O)oc2c(C)c3oc(CNCCN)c(C)c3cc12 [Compound 16, 5'-(4-amino-2-aza)butyl4,4',8-trimethylpsoralen]",R17 inactivation efficiency compared with AMT,[3],significantly higher inactivation efficiency than does AMT
"Cc1oc2c(C)c3oc(=O)cc(C)c3cc2c1CNCCCCCN [Compound 10, 4'-(7-amino-2-aza)heptyl-4,5',8-trimethylpsoralen]",HIV Log Kill,[1]; [11],2.0
same,HIV Log Kill,[1]; [12],>3.5
same,HIV Log Kill,[1]; [13],>3.5
same,efficiency at inactivating R17 compared with AMT,[3],more efficient at inactivating R17 than was AMT
"Cc1oc2c(C)c3oc(=O)cc(C)c3cc2c1CNCCCNCCCN [Compound 12, 4'-(9-amino-2,6-diaza)nonyl-4.5',8-trimethylpsoralen]",HIV Log Kill,[1]; [11],0.4
same,HIV Log Kill,[1]; [12],0.8
same,HIV Log Kill,[1]; [13],1.3
same,efficiency at inactivating R17 compared with AMT,[3],more efficient at inactivating R17 than was AMT
"Cc1oc2c(C)c3oc(=O)cc(C)c3cc2c1CCN [Compound 3, 4'-(2-aminoethyl)-4,5',8-trimethylpsoralen]",HIV Log Kill,[1]; [4],2.7
same,HIV Log Kill,[1]; [5],>3.8
same,"revertant colonies, TA100 +S9",[2]; 5 µg/plate,-19
same,"revertant colonies, TA100 -S9",[2]; 5 µg/plate,47
same,"revertant colonies, TA1538 +S9",[2]; 5 µg/plate,1
same,"revertant colonies, TA1538 -S9",[2]; 5 µg/plate,0
same,"revertant colonies, TA100 +S9",[2]; 10 µg/plate,8
same,"revertant colonies, TA100 -S9",[2]; 10 µg/plate,47
same,"revertant colonies, TA1538 +S9",[2]; 10 µg/plate,9
same,"revertant colonies, TA1538 -S9",[2]; 10 µg/plate,-6
same,"mutagenic response (Ames, summary)",[2]; [6],no mutagenicity
same,R17 Log Kill,"[3]; 8 µM, 1 Minute Irradiation, Starting Titer Approx. 7.2 Logs (Table 7)",>6.2
same,R17 Log Kill,"[3]; 8 µM, 1 Minute irradiation = 1.2 J/cm^2, Starting Titer Approx. 7.1 Logs (Table 8)",5.6
same,R17 Log Kill,"[3]; 16 µM, 1 Minute Irradiation, Starting Titer Approx. 7.2 Logs (Table 7)",>6.2
same,R17 Log Kill,[3]; [7],>6.1
same,R17 Log Kill,"[3]; 32 µM, 1 Minute Irradiation, Starting Titer Approx. 7.2 Logs (Table 7)",>6.2
same,R17 inactivation efficiency compared with AMT,[3],significantly higher inactivation efficiency than does AMT
"[N-]=[N+]=[N-] [sodium azide, reference compound]","revertant colonies, TA100 -S9",[2]; 1.5 µg/plate (positive control),965
same,"revertant colonies, TA1538 -S9 (Table 18 (A))","[2]; 1.5 µg/plate (positive control), Table 18 (A), background 126",965
"Cc1oc2c(C)c3oc(=O)cc(C)c3cc2c1CNCCCNCCCCNCCCN [Compound 15, 4'-(14-amino-2,6,11-triaza)tetradecyl-4,5',8-trimethylpsoralen]",efficiency at inactivating R17 compared with AMT,[3],more efficient at inactivating R17 than was AMT
"OO [hydrogen peroxide, reference compound]","revertant colonies, TA102 -S9","[2]; Salmonella typhimurium, pH 7.4",660
"Cc1oc2c(C)c3oc(=O)cc(C)c3cc2c1CNCCN [Compound 1, 4'-(4-amino-2-aza)butyl-4,5',8-trimethylpsoralen]",HIV Log Kill,[1]; [5],2.1
same,"revertant colonies, TA100 +S9",[2]; 5 µg/plate,-24
same,"revertant colonies, TA100 -S9",[2]; 5 µg/plate,292
same,"revertant colonies, TA1538 +S9",[2]; 5 µg/plate,21
same,"revertant colonies, TA1538 -S9",[2]; 5 µg/plate,10
same,"revertant colonies, TA100 +S9",[2]; 10 µg/plate,-22
same,"revertant colonies, TA100 -S9",[2]; 10 µg/plate,337
same,"revertant colonies, TA1538 +S9",[2]; 10 µg/plate,22
same,"revertant colonies, TA1538 -S9",[2]; 10 µg/plate,12
same,"frameshift mutagenicity (Ames, summary)",[2]; [6],weak frameshift mutagen in TA1538 at 5 µg/plate in the presence of S9
same,"base-substitution mutagenicity (Ames, summary)","[2]; two-fold or greater increase in revertants above background and dose dependent response, TA100, TA102","displayed mutation in the TA100 strain, but only in the absence of S9"
same,Logs Killed,"[3]; Experiment 2, compound only (3.2 µM), no uva",0.1
"Cc1oc2c(C)c3oc(=O)cc(C)c3cc2c1COCCOCCN [Compound 7, 4'-(7-amino-2,5-oxa)heptyl-4.5',8-trimethylpsoralen]",HIV Log Kill,[1]; [10],0.8
same,HIV Log Kill,[1]; [4],2.1
same,HIV Log Kill,[1]; [5],3.5
same,R17 Log Kill,"[3]; 16 µM, 1 Minute Irradiation, Starting Titer Approx. 7.1 Logs (Table 9)",>6
same,R17 Log Kill,"[3]; 32 µM, 1 Minute Irradiation, Starting Titer Approx. 7.1 Logs (Table 9)",>6
same,R17 Log Kill,"[3]; 64 µM, 1 Minute Irradiation, Starting Titer Approx. 7.1 Logs (Table 9)",>6
"Cc1oc2c(C)c3oc(=O)cc(C)c3cc2c1COCCOCCNCCCCN [Compound 8, 4'-(12-amino-8-aza-2,5-dioxa)dodecyl-4,5',8-trimethylpsoralen]",HIV Log Kill,[1]; [10],1.1
same,HIV Log Kill,[1]; [4],1.9
same,HIV Log Kill,[1]; [5],3.7
